This is an account of results in publication PMC6132687, “Stem cells are the most sensitive screening tool to identify toxicity of GATA4-targeted novel small-molecule compounds” (Archives of Toxicology, 2018).

Data set [1] relates to hiPSC-CMs. Kind of data set: High-content analysis of proliferation (Ki67, BrdU, DNA) in hiPSC-CMs. The data set is classed as cell-based, human. Particulars: 24 h; for average intensity of nuclear Ki67 staining / increase in the percentage of Ki67+ cells compared to DMSO: 30 µM. As for the experimental part: (§1) For proliferation studies, the cells were exposed to the test compounds for 24 h and 10 µM BrdU was added to the culture medium for the last 1 h (hiPSCs) or 24 h (hiPSC-CMs) before fixation with 4% paraformaldehyde (PFA) for 15 min at room temperature (rt). The cells were then permeabilized with 0.1% Triton X-100 for 10 min and DNA was hydrolysed with 2 M hydrochloric acid for 30 min at rt followed by neutralization with 0.1 M sodium borate (pH 8.5) for 30 min. Non-specific binding sites were blocked with 4% FBS in phosphate-buffered saline (PBS) for 45 min at rt, whereafter the cells were incubated with anti-Ki67 (1:250) and anti-BrdU (1:250) antibodies for 60 min at rt. Cells were then washed 3 × 5 min with PBS and incubated with Alexa Fluor-conjugated secondary antibodies (1:200) and DAPI (5 µg/ml) for 45 min at rt. In hiPSC-CM cultures, staining with primary antibody against α-actinin (at 1:600) was additionally used to identify myocytes. The plates were imaged and analysed with CellInsight CX5 High Content Screening Platform (Thermo Scientific) using a 10× objective (Olympus UPlanFL N 10×/0.3). For quantification, the cells were first identified based on DAPI fluorescence, which defined the nuclear area for quantifications. In hiPSC-CM cultures, non-myocytes were excluded based on absence of α-actinin staining and nuclear area. The thresholds for α-actinin fluorescence intensity and nuclear area were set manually in each experiment to allow optimal exclusion of non-myocytes. In hiPSC-CMs cultures, the data were collected only from α-actinin positive cells. The thresholds for Ki67+ and BrdU+ cells were also set manually in each experiment as described previously (Mioulane et al. [2012]) to adjust for slight variation in staining intensity.

In data set [2] the test system is caspase-3/7 activity in hiPSCs. Nature of the data set: High-content analysis of caspase-3/7 activation in hiPSCs. The class given is cell-based, human. To be noted: 4-h exposure. The procedure:
To study caspase activation, the cells were exposed to the test compounds for 4 h and then incubated with 3–5 µM CellEvent™ Caspase-3/7 Green Detection Reagent solution in PBS with 5% FBS for 50 min and stained with Hoechst for 10 min at 37 °C. Cells were fixed with 4% PFA and scanned with CellInsight using the 10× objective, or alternatively, the staining solution was replaced with fresh 5% FBS in PBS followed by live cell imaging with CellInsight. Hoechst fluorescence was used to identify the cells and define the nuclear area. The intensity of green fluorescence within the nucleus was quantified as a measure of caspase 3/7 activity.

Data set [3] has as its system hiPSCs. Kind of data set: High-content analysis of proliferation (Ki67, BrdU, DNA) in hiPSCs. The class given is cell-based, human. To be noted: 24 h. The procedure:
as §1

For data set [4], the system named is mESCs. Nature of the data set: MTT assay in mESCs. The data set is classed as cell-based, mouse. To be noted: 24 h; for reduction in cell viability: 30 µM. As for the experimental part:
The cells were exposed to the test compounds for 24 h and cytotoxicity was quantified with MTT and LDH assays as described previously (Talman et al. [2011]). For the determination of cell membrane integrity, 50 µl of medium from each well was transferred onto a new 96-well plate followed by addition of 50 µl of substrate solution containing 1.3 mM β-nicotinamide adenine dinucleotide, 660 µM iodonitrotetrazolium, 54 mM L(+)-lactic acid, 280 µM phenazine methosulphate and 0.2 M Tris–HCl (pH 8.0). After a 30-min incubation, the reaction was stopped by adding 50 µl of 1 M acetic acid to each well and absorbance was measured at 490 nm using Victor2 plate reader (PerkinElmer, Turku, Finland). Spontaneous LDH release was measured from untreated cells, maximal LDH release from cells lysed with 0.9% Triton X-100 and background absorbance was measured from wells without cells. After background extraction, cytotoxicity was calculated as follows: cytotoxicity (%) = [(sample − spontaneous LDH release)/(maximal LDH release − spontaneous LDH release)] × 100. For quantification of metabolic activity, 3-(4,5-dimethylthiazol-2-yl)-2,5-diphenyltetrazolium bromide (MTT) was added to the cells at a final concentration of 0.5 mg/ml followed by 2 h incubation in cell culture conditions. The medium was then aspirated and formazan crystals were solubilized in DMSO. Absorbance was measured at 550 nm and absorbance at 650 nm was subtracted as background.
Mouse embryonic stem cells (mESCs), embryoid bodies (EBs), and primary mouse embryonic fibroblasts (MEFs) were used for toxicity experiments. E14 mESCs were cultured in feeder-free conditions on plates coated with 0.1% gelatin in DMEM with 15% FBS, GlutaMax, MEM non-essential amino acids, 2-mercaptoethanol, and leukemia inhibitory factor (LIF). For toxicity assays, the cells were dissociated with TrypLe and plated at 5,000 cells/well in gelatin-coated 96-well plates 24 hours prior to compound exposures. […]
1640 without glucose with B-27 supplement in order to purify cardiomyocytes. From day 15 onwards the cells were maintained in RPMI 1640 supplemented with B-27 (RB+ins). Beating hiPSC-CMs were dissociated between days 15 and 22 by incubating them in cell dissociation solution containing 40% enzyme-free cell dissociation buffer, 40% RPMI 1640 and 20% trypsin-EDTA (final trypsin concentration 0.01%) for 7–8 min, whereafter the cells were collected and trypsin was inactivated in RB+ins supplemented with 10% FBS. After centrifugation the cells were suspended in RB+ins with 10% FBS containing 10 µM ROCK inhibitor and seeded at 15,000 cells/well (cytotoxicity assays) or 20,000 cells/well (high content analysis) in gelatin-coated 96-well plates. The cells were let to attach for 2 days at 37 °C in standard conditions, whereafter the compounds were added in RB+ins. In general, the differentiation yielded an almost pure (>95%) cardiomyocyte culture.
Syntheses and characterization of compounds
Materials and general procedures. All reagents were acquired from Sigma-Aldrich (Schnelldorf, Germany) and Enamine (Kiev, Ukraine), and were used without further purification. All reactions in anhydrous solvents were conducted in oven-dried glassware under anhydrous argon. Thin-layer chromatography (TLC) was performed using Silica Gel 60 F254 (Merck) and Silica Gel 60 NH2 F254s aluminium sheets (Merck), visualized by UV illumination and stained with ninhydrin in EtOH (1.5% w/v). […] The 1H and 13C NMR spectra were recorded on a Varian
(In general: Tetrazolium dyes change colour on reduction, which living cells bring about.)

On to `CCN(CC)c1ccc(NC(=O)c2c(-c3ccccc3)noc2C)cc1` [3i-1000], for which the “decrease in BrdU+ hiPSC-CMs as compared to DMSO” value in data set [1] (P = 0.233) was found to be 43%. Further, in data set [1] (hiPSC-CMs), the “average intensity of nuclear Ki67 staining” value was “substantial increases”, the “increase in the percentage of Ki67+ cells compared to DMSO” value amounted to 1.7 fold, the “average intensity of nuclear BrdU staining” value is “tendency for 3i-1000 to induce a decrease” and the “average total intensity of DNA staining” value is recorded as “neither 3i-1000 nor 3i-1047 caused significant changes”. In addition, in data set [1] (hiPSC-CMs), the “percentage of cells with high total intensity of DNA staining” value is “neither 3i-1000 nor 3i-1047 caused significant changes”. Besides, in data set [2] (vs DMSO), the “increase in cells positive for the fluorescent caspase reporter” value came to 3.2 fold. Also, in data set [3] (1 µM), the “proportion of BrdU-positive cells” value is recorded as “not at 1 µM” and the “proportion of Ki67 positive cells” value is “not at 1 µM”. For the same molecule, in data set [3] (10 µM), the “proportion of BrdU-positive cells” value is reported as “decreased” and the “proportion of Ki67 positive cells” value is on record as “decreased”. Further, in data set [3], the “average intensity of nuclear BrdU staining” value is given as “decreased average intensity”, the “average intensity of nuclear Ki67 staining” value was “decreased average intensity”, the cell numbers result is “significantly reduced” and the “decrease in the average total intensity of DNA staining” value was 66%. In addition, in data set [3] (P = 0.062), the “decrease in cells with high total DNA staining intensity (G2 phase)” value was found to be 77%. For the same molecule, the “reduction in cell viability” value in data set [4] is 56%.
Consider `CCN(CC)c1ccc(NC(=O)c2cc(C)oc2-c2ccccc2)cc1` [3i-1148], for which, in data set [4], the “sensitivity of cell type to compound (viability)” value (shortened to “sensitivity of cell type”) is reported as “sensitive”.
Regarding `CCN(CC)c1ccc(NC(=O)c2c(C)noc2-c2cc(C)on2)cc1` [3i-1047], in data set [1] (hiPSC-CMs), the “average intensity of nuclear Ki67 staining” value is “substantial increases”, the “increase in the percentage of Ki67+ cells compared to DMSO” value is reported as 1.5 fold, the “average intensity of nuclear BrdU staining” value was “no effect” and the “average total intensity of DNA staining” value is “neither 3i-1000 nor 3i-1047 caused significant changes”. In addition, in data set [1] (hiPSC-CMs), the “percentage of BrdU+ cells” value was “no effect” and the “percentage of cells with high total intensity of DNA staining” value is on record as “neither 3i-1000 nor 3i-1047 caused significant changes”. The “effect on caspase-3/7 activity” value in data set [2] is “no effect”. Also, in data set [3] (1 or 10 µM), the “corresponding average staining intensities (Ki67, BrdU, DNA)” value is “no effect”; the “percentage of BrdU+ cells” value was “no effect”; the “percentage of Ki67+ cells” value was “no effect”; the “percentage of high DNA cells” value was “no effect”. In addition, in data set [4], the “reduction in cell viability” value is on record as 38–45%.
`CCC(=O)N(Cc1ccc(N(CC)CC)cc1)c1c(-c2ccccc2)noc1C` [3i-1120]: the “sensitivity of cell type” value in data set [4] was “sensitive”.
With `COc1ccc(-c2cc(N)nn2C(=O)c2c(-c3ccccc3)noc2C)cc1` [3i-1229], in data set [4], the “sensitivity of cell type” value was “sensitive”.
